Tested on: CHO cells
Test: In vitro transfection with luciferase plasmid using peptides
Type: cell-based, Chinese hamster
Conditions: for luciferase expression RLU: 3 μg of plasmid PCMV-LUC and 3.3 nmoles of peptide
Description: The plasmid used is PCMV-LUC (6.4 kb) carrying the luciferase gene under the control of the promoter of the human cytomegalovirus.
The plasmid-peptide complexes are prepared by adding 3 μg of plasmid to 50 μl of NaCl, 0.15 M and 3.3 nmoles of SEQ ID NO: 22 and 23 for 15 minutes. The complexes are prepared in triplicate.
CHO cells are cultivated in the complete medium MEM Alpha containing 6% fetal calf serum and sown with 5×10^4 cells per well on a 24-well plate the evening before the experiment. The wells are then emptied of the medium, and the plasmid-peptide complex is added to them (3 μg of plasmid and 3.3 nmoles of peptide in 0.5 ml of complete medium for 5 hours at 37° C.). The medium is then replaced with the complete medium, and the culture is continued for 18-20 hours. The cells are then washed three times with PBS, then lysed with 100 μl of lysis buffer (Promega) containing 1% Triton X-100 and 2 mM DTT.
Then a 15 μl sample of the lysate is taken to measure the luciferase with the Promega luciferin kit and 15 other μl to calculate the quantity of proteins in the lysate using the Bradford Test. The relative luciferase units (RLU) are reported in mg of proteins.

| Substance | luciferase expression RLU | increase of luciferase expression compared with SEQ ID NO: 22 (CHO cells) [times] |
| --- | --- | --- |
| SEQ ID NO: 23: Peptide containing 12 lysines (K) and SEQ ID NO: 5 (KKKKKKKKKKKKVKRGLKLRQKYNKRAMDY; Mus musculis x Rattus norvegicus) | 11.5 10^6/mg of proteins | 6 |
| SEQ ID NO: 22: Peptide containing 12 lysines (K) and SEQ ID NO: 6 (KKKKKKKKKKKKTYYSDTVKGRFTRQKYNKRA; Mus musculis x Rattus norvegicus) | 1.9 10^6/mg of proteins | – |

Source: patent US8003595B2, “Amino acid sequences facilitating penetration of a substance of interest into cells and/or cell nuclei” (Cellectis, priority 2000, dated 2011)
